Assay [1] deals with T1, ΔF508-CFTR (Homo sapiens, UniProt P13569, DEL508-508).
T1 construct: host or cells: CFBE41o-, doxycycline-inducible
As to the kind of experiment: CFTR cell surface levels using HRP-tagged ΔF508-CFTR expressing CFBE cells, intrinsic corrector capacity. The format is cell-based. As to conditions: for EC50: read-out: EC50. An excerpt:
Measuring CFTR Cell Surface Levels Using HRP-Tagged AF508-CFTR Expressing CFBE Cells
The HRP-tagged AF508-CFTR cell assay measures the expression of CFTR-ΔF508 at the plasma membrane. CFTR-ΔF508 has a folding defect leading to absence of protein at the plasma membrane. This assay is used to evaluate the capacity of compounds to increase the expression of CFTR-ΔF508 at the plasma membrane. The CFTR-ΔF508 is tagged with HRP (horse radish peroxidase enzyme) within the ECL4 (Extracellular loop 4) of CFTR (Phuan, P.-W. et al. Synergy-based small-molecule screen using a human lung epithelial cell line yields AF508-CFTR correctors that augment VX-809 maximal efficacy. Mol. Pharmacol. 86, 42-51 (2014)). When HRP-tagged AF508-CFTR is present at the plasma membrane, the HRP enzyme activity can be measured. The amount of CFTR-ΔF508 that can be rescued to the plasma membrane is correlated with the amount of functional enzyme that can be measured.
There are several ways to measure the capacity of compounds to rescue CFTR-ΔF508 to the plasma membrane; either compounds are evaluated on their own and the impact on plasma membrane levels is measured or compounds are evaluated in combination with a co-corrector, i.e. a compound that rescues CFTR-ΔF508 to the plasma membrane but rescue can be enhanced by addition of compounds due to a complementary mode of action.
Activity of Compounds for their Intrinsic Corrector Capacity:
For this purpose doxycycline-inducible AF508-CFTR-HRP expressing CFBE4lo-cells (obtained from Gergely Lukacs, McGill University) were maintained in MEM (Gibco; 31095) supplemented with 10% fetal bovine serum (Hyclone; SV30160.03) under puromycin (3 μg/mL) and G418 selection (0.2 mg/mL). For compound testing, cells were seeded at 4000 cells/well in white 384-well plates (Greiner; 781080) in 50 μL medium containing 0.5 μg/mL doxycycline and incubated for 68 hours at 37° C., 5% CO2. On day four, 10 μL test compounds diluted in PBS were added to the plates at a final DMSO concentration of 0.1%. All compound plates contained negative controls (DMSO) and positive controls (3 μM corrector, 3-[(2R,4R)-4-({[1-(2,2-difluoro-1,3-benzodioxol-5-yl)cyclopropyl]carbonyl}amino)-7-methoxy-3,4-dihydro-2H-chromen-2-yl]benzoic acid). Cell plates were incubated at 33° C., 5% CO2 for 20 hours. On day five, the cells were washed five times with phosphate-buffered saline, and HRP activity was assayed by the addition of 50 μL/well of HRP substrate (SuperSignal™ West Pico Chemiluminescent Substrate, Thermo Scientific; 34080). After incubation for 15 minutes in the dark, chemiluminescence was measured using a plate reader (EnVision®, Perkin Elmer). Raw data were normalized to percentage activity values using the equation: 100×(Sample−Negative control)/(Positive control−Negative Control).

In assay [2] the target is T1, ΔF508-CFTR. Briefly: CFTR cell surface levels using HRP-tagged ΔF508-CFTR expressing CFBE cells, in the presence of a co-corrector. The assay is classed as cell-based. As to conditions: HRP-tagged ΔF508-CFTR expressing CFBE cells, in the presence of 3 μM co-corrector; for EC50: read-out: EC50. The essentials:
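Cells were seeded with 0.5 μg/mL doxycycline and held 68 h at 37 °C. Test compounds plus 3 μM co-corrector (final 0.1% DMSO) were then added for 20 h at 33 °C. Washed cells received HRP substrate, and luminescence was normalized between DMSO and 3 μM co-corrector controls.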

[3] abbreviates: HRP-tagged ΔF508-CFTR CFBE41o- cells, compounds alone (intrinsic corrector capacity), 20 hours at 33° C., positive control 3 μM corrector.
Setting [4] is: HRP-tagged ΔF508-CFTR CFBE41o- cells, compounds alone (intrinsic corrector capacity), 20 hours at 33° C.
Setting [5] is: HRP-tagged ΔF508-CFTR expressing CFBE cells, intrinsic corrector capacity (no co-corrector), 33° C., 20 hours.

Structures are written as SMILES.

T1 sequence (P13569 with tags, fused parts or gaps DEL508-508): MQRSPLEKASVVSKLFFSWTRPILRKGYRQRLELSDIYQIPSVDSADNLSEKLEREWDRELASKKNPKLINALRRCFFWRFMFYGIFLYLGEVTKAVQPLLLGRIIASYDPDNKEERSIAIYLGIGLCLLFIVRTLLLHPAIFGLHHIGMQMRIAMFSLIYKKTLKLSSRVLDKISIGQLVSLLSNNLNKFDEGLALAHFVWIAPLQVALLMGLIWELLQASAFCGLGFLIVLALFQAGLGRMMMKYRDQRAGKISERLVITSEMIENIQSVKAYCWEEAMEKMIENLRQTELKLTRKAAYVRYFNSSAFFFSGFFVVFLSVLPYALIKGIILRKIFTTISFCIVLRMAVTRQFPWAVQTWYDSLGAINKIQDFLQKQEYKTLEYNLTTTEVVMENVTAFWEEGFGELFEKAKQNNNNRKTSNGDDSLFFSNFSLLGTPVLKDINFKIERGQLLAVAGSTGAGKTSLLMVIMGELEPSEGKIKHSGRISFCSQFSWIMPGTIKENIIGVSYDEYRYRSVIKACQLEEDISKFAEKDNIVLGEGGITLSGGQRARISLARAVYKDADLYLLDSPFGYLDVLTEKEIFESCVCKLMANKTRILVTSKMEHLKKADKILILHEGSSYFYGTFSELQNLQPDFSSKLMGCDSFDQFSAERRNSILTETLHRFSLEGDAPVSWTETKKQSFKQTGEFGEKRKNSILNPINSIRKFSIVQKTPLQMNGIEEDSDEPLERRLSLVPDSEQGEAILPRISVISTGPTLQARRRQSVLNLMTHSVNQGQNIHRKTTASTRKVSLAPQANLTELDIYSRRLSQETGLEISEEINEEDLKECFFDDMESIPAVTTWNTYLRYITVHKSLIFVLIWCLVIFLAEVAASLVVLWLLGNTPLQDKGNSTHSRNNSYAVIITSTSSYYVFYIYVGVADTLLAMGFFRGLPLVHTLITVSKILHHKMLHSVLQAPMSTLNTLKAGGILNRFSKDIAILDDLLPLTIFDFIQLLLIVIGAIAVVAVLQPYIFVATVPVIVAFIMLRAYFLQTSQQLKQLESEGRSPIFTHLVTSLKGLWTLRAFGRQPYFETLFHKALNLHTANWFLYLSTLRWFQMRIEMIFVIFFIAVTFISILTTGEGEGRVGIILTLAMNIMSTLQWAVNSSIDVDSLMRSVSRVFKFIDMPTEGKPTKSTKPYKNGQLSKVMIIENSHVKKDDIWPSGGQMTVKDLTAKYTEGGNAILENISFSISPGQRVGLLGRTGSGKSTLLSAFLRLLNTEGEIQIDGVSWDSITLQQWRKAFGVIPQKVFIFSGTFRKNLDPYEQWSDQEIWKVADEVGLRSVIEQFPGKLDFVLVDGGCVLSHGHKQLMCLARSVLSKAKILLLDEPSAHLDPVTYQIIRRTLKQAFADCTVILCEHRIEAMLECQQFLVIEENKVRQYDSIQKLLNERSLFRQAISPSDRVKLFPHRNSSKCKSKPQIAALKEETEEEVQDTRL

Take `CC(C)c1nn(-c2cccc(N(C)C)c2)c2nc(C(=O)O)cc(-c3ccc(N(C)C4CCOCC4)nc3)c12` [compound 189, 1-[3-(dimethylamino)phenyl]-4-{6-[methyl(oxan-4-yl)amino]pyridin-3-yl}-3-(propan-2-yl)-1H-pyrazolo[3,4-b]pyridine-6-carboxylic acid]: the “% Activation” value on ΔF508-CFTR [1] (setting [3]) is on record as 385.02%; on ΔF508-CFTR [2] it was 590.78%. Also, the EC50 (commonly the concentration giving half of the maximal effect) at ΔF508-CFTR [1] (setting [4]) amounted to 514 nM; on ΔF508-CFTR [2], 292 nM.

On to `CC(C)c1nn(-c2ccc(F)cc2)c2nc(C(=O)O)cc(OCC3(C)CC(F)(F)C3)c12` [compound 652, 4-[(3,3-difluoro-1-methylcyclobutyl)methoxy]-1-(4-fluorophenyl)-3-(propan-2-yl)-1H-pyrazolo[3,4-b]pyridine-6-carboxylic acid], for which, at ΔF508-CFTR [1] (setting [5]), the “% Activation” value is 130.6% and the EC50 turned out to be 334 nM. Also, at ΔF508-CFTR [2], the “% Activation” value was 310.6% and the EC50 was 203 nM.

Take `CC(C)c1nn(-c2ccc(F)cc2F)c2nc(C(=O)O)cc(-c3cnc(N4CCC(C#N)CC4)nc3)c12` [compound 325, 4-[2-(4-cyanopiperidin-1-yl)pyrimidin-5-yl]-1-(2,4-difluorophenyl)-3-(propan-2-yl)-1H-pyrazolo[3,4-b]pyridine-6-carboxylic acid]: the entries for the “% Activation” value on ΔF508-CFTR [1] (setting [3]) and at ΔF508-CFTR [2] were 177.1% and 389.75%, respectively. Also, the values for the EC50 at ΔF508-CFTR [1] (setting [4]) and on ΔF508-CFTR [2] were 1200 nM and 779 nM, respectively.

For the molecule `Cc1c(C(=O)O)nc2c(c(C)nn2-c2ccccc2)c1-c1ccc(N2CCOCC2)cc1` [compound 42, 3,5-dimethyl-4-[4-(morpholin-4-yl)phenyl]-1-phenyl-1H-pyrazolo[3,4-b]pyridine-6-carboxylic acid], the “% Activation” value on ΔF508-CFTR [1] (setting [3]) is 74.83%. On ΔF508-CFTR [1] (setting [4]), the EC50 came to 3340 nM.

Consider `CC(C)c1nn(-c2ccccc2)c2nc(C(=O)O)cc(-c3ccc(N4CCCC4)cc3)c12` [compound 24, 1-phenyl-3-(propan-2-yl)-4-[4-(pyrrolidin-1-yl)phenyl]-1H-pyrazolo[3,4-b]pyridine-6-carboxylic acid], for which the “% Activation” value at ΔF508-CFTR [1] (setting [3]) was found to be 134.1%. Besides, the 50% effective concentration (EC50) at ΔF508-CFTR [1] (setting [4]) is 1830 nM.

Take `Cc1nn(-c2cccc(Br)c2)c2nc(C(=O)O)cc(-c3ccc(N4CCOCC4)cc3)c12` [compound 18, 1-(3-bromophenyl)-3-methyl-4-[4-(morpholin-4-yl)phenyl]-1H-pyrazolo[3,4-b]pyridine-6-carboxylic acid]: the “% Activation” value on ΔF508-CFTR [1] (setting [3]) is reported as 126.8%. Besides, the EC50 on ΔF508-CFTR [1] (setting [4]) stood at 783 nM.

Regarding `C=C(C)c1nn(-c2ccccc2)c2nc(C(=O)O)cc(-c3ccc(N4CCOCC4)cc3)c12` [compound 48, 4-[4-(morpholin-4-yl)phenyl]-1-phenyl-3-(prop-1-en-2-yl)-1H-pyrazolo[3,4-b]pyridine-6-carboxylic acid], the “% Activation” value on ΔF508-CFTR [1] (setting [3]) is recorded as 163.7%. Also, at ΔF508-CFTR [1] (setting [4]), the EC50 was 989 nM.

For `CCOC(=O)c1nn(-c2ccccc2)c2nc(C(=O)O)cc(-c3ccc(N4CCOCC4)cc3)c12` [compound 16, 3-(ethoxycarbonyl)-4-[4-(morpholin-4-yl)phenyl]-1-phenyl-1H-pyrazolo[3,4-b]pyridine-6-carboxylic acid], the “% Activation” value at ΔF508-CFTR [1] (setting [3]) came out at 92.93%. The EC50 at ΔF508-CFTR [1] (setting [4]) amounted to 3340 nM.

Take `Cc1nn(-c2ccccc2)c2nc(C(=O)O)cc(-c3ccc(C4=CCN(C)CC4)cc3)c12` [compound 27, 3-methyl-4-[4-(1-methyl-1,2,3,6-tetrahydropyridin-4-yl)phenyl]-1-phenyl-1H-pyrazolo[3,4-b]pyridine-6-carboxylic acid]: at ΔF508-CFTR [1] (setting [3]), the “% Activation” value is reported as 41.145%. The EC50 at ΔF508-CFTR [1] (setting [4]) amounted to 6670 nM.

Regarding `COc1cc(N2CCOCC2)ccc1-c1cc(C(=O)O)nc2c1c(C)nn2-c1ccccc1` [compound 33, 4-[2-methoxy-4-(morpholin-4-yl)phenyl]-3-methyl-1-phenyl-1H-pyrazolo[3,4-b]pyridine-6-carboxylic acid], the “% Activation” value at ΔF508-CFTR [1] (setting [3]) came out at 90.265%. In addition, on ΔF508-CFTR [1] (setting [4]), the EC50 turned out to be 1530 nM.

For `Cc1nn(-c2ccc(F)c(F)c2)c2nc(C(=O)O)cc(-c3ccc(N4CCOCC4)cc3)c12` [compound 37, 1-(3,4-difluorophenyl)-3-methyl-4-[4-(morpholin-4-yl)phenyl]-1H-pyrazolo[3,4-b]pyridine-6-carboxylic acid], on ΔF508-CFTR [1] (setting [3]), the “% Activation” value came to 112.9%. For the same molecule, the EC50 at ΔF508-CFTR [1] (setting [4]) was determined as 1110 nM.

Turning to `Cc1nn(-c2cnn(C)c2)c2nc(C(=O)O)cc(-c3ccc(N4CCOCC4)cc3)c12` [compound 46, 3-methyl-1-(1-methyl-1H-pyrazol-4-yl)-4-[4-(morpholin-4-yl)phenyl]-1H-pyrazolo[3,4-b]pyridine-6-carboxylic acid], the “% Activation” value at ΔF508-CFTR [1] (setting [3]) is on record as 15.23%. Besides, the EC50 at ΔF508-CFTR [1] (setting [4]) is > 10000 nM.

On to `Cc1nn(-c2ccccc2)c2nc(C(=O)O)cc(-c3ccc(N4CCCCC4)cc3)c12` [compound 8, 3-methyl-1-phenyl-4-[4-(piperidin-1-yl)phenyl]-1H-pyrazolo[3,4-b]pyridine-6-carboxylic acid], for which the “% Activation” value at ΔF508-CFTR [1] (setting [3]) stood at 91.055%. Besides, the EC50 on ΔF508-CFTR [1] (setting [4]) is 754 nM.

In the case of `Cc1nn(-c2cccc(S(C)(=O)=O)c2)c2nc(C(=O)O)cc(-c3ccc(N4CCOCC4)cc3)c12` [compound 38, 1-[3-(methanesulfonyl)phenyl]-3-methyl-4-[4-(morpholin-4-yl)phenyl]-1H-pyrazolo[3,4-b]pyridine-6-carboxylic acid], the “% Activation” value at ΔF508-CFTR [1] (setting [3]) was 23.86%. For the same molecule, at ΔF508-CFTR [1] (setting [4]), the EC50 is > 10000 nM.

In the case of `Cc1nn(-c2ccccc2)c2nc(C(=O)O)cc(-c3ccc(N4CCS(=O)(=O)CC4)cc3)c12` [compound 14, 4-[4-(1,1-dioxo-1λ^6,4-thiazinan-4-yl)phenyl]-3-methyl-1-phenyl-1H-pyrazolo[3,4-b]pyridine-6-carboxylic acid], the “% Activation” value on ΔF508-CFTR [1] (setting [3]) stood at 58.56%. Moreover, the EC50 on ΔF508-CFTR [1] (setting [4]) came to 3340 nM.

With `COc1cccc(-n2nc(C)c3c(-c4ccc(N5CCOCC5)cc4)cc(C(=O)O)nc32)c1` [compound 21, 1-(3-methoxyphenyl)-3-methyl-4-[4-(morpholin-4-yl)phenyl]-1H-pyrazolo[3,4-b]pyridine-6-carboxylic acid], the “% Activation” value at ΔF508-CFTR [1] (setting [3]) is on record as 103.72%. For the same molecule, on ΔF508-CFTR [1] (setting [4]), the EC50 is 1060 nM.

Take `Cc1nn(-c2cccc(OC(F)(F)F)c2)c2nc(C(=O)O)cc(-c3ccc(N4CCOCC4)cc3)c12` [compound 35, 3-methyl-4-[4-(morpholin-4-yl)phenyl]-1-[3-(trifluoromethoxy)phenyl]-1H-pyrazolo[3,4-b]pyridine-6-carboxylic acid]: on ΔF508-CFTR [1] (setting [3]), the “% Activation” value is 110.15%. Moreover, the EC50 on ΔF508-CFTR [1] (setting [4]) is 737 nM.

`Cc1nn(-c2cc[nH]c(=O)c2)c2nc(C(=O)O)cc(-c3ccc(N4CCOCC4)cc3)c12` [compound 58, 3-methyl-4-[4-(morpholin-4-yl)phenyl]-1-(2-oxo-1,2-dihydropyridin-4-yl)-1H-pyrazolo[3,4-b]pyridine-6-carboxylic acid]: the “% Activation” value on ΔF508-CFTR [1] (setting [3]) came out at 4.754%. On ΔF508-CFTR [1] (setting [4]), the EC50 was > 10000 nM.

Regarding `Cc1cc(C)cc(-n2nc(C)c3c(-c4ccc(N5CCOCC5)cc4)cc(C(=O)O)nc32)c1` [compound 30, 1-(3,5-dimethylphenyl)-3-methyl-4-[4-(morpholin-4-yl)phenyl]-1H-pyrazolo[3,4-b]pyridine-6-carboxylic acid], the “% Activation” value at ΔF508-CFTR [1] (setting [3]) is 119.1%. In addition, the EC50 at ΔF508-CFTR [1] (setting [4]) worked out at 1210 nM.

These data come from patent publication US9796711B2, “Substituted pyrazolo[3,4-b]pyridin-6-carboxylic acids and method of use” (AbbVie S.àr.l., priority 2015, dated 2017).
